Test results published in patent publication US9365522B2, “Pyrazole amide derivative” (AMGEN INC., priority 2015, dated 2016).

Target: T1, human RORγ-LBD (Homo sapiens, UniProt P51449)
T1 construct: made in house; host or cells: E. coli (BL-21)
T1 sequence (P51449 262-518): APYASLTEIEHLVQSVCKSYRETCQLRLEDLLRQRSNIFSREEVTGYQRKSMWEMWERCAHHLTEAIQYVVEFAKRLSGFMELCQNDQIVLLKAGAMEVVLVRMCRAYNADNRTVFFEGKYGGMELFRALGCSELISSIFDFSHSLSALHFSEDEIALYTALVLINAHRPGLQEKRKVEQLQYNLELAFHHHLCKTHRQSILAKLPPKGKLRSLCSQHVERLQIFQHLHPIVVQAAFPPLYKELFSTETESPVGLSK
Test: ROR gamma coactivator peptide recruitment Alphascreen assay (RORγ-LBD binding to GRIP1 coactivator peptide)
Assay type: biochemical
Conditions: 5 nM human RORγ-LBD, 30 nM 7-β-hydroxycholesterol, 50 nM biotinylated GRIP1 coactivator peptide, overnight incubation at room temperature; read-out: result (pIC50, RORγ coactivator peptide recruitment Alphascreen assay) (converted)
Procedure, shortened: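 His/Flag-tagged human RORγ-LBD (aa 262-518, E. coli-expressed, 5 nM) with agonist 7-β-hydroxycholesterol (30 nM) and biotinylated GRIP1 LXXLL peptide (50 nM) in HEPES pH 7.4 buffer, 2.5% DMSO. Compound 1-in-2 dilutions; Alphascreen bead signal read after overnight incubation at room temperature; pIC50 calculated.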

Compound: CC1(C)CC[C@H]1N(CC(=O)c1c(Cl)cccc1Cl)C(=O)c1cnn([C@H]2CC[C@@H](C(=O)O)CC2)c1C(F)(F)F [Example 636, cis-4-(4-((2-(2,6-dichlorophenyl)-2-oxoethyl)((1R)-2,2-dimethylcyclobutyl)carbamoyl)-5-(trifluoromethyl)-1H-pyrazol-1-yl)cyclohexanecarboxylic acid]
- IC50: 132 nM

Compound: CC(C)(C)CN(CC(=O)c1c(Cl)cncc1Cl)C(=O)c1cnn([C@H]2C[C@@H]3[C@H](C2)[C@@H]3C(=O)O)c1C(F)(F)F [Example 770, (1R,3r,5S,6s)-3-(4-((2-(3,5-dichloro-4-pyridinyl)-2-oxoethyl)(2,2-dimethylpropyl)carbamoyl)-5-(trifluoromethyl)-1H-pyrazol-1-yl)bicyclo[3.1.0]hexane-6-carboxylic acid]
- IC50: 42.7 nM

Compound: CC(C)(C)CN(CC(=O)c1c(Cl)cncc1Cl)C(=O)c1cnn([C@@H]2CC[C@]3(C(=O)O)CCC[C@@H]3C2)c1C(F)(F)F [Example 877, (3aR,6R,7aR)-6-(4-((2-(3,5-dichloropyridin-4-yl)-2-oxoethyl)(neopentyl)carbamoyl)-5-(trifluoromethyl)-1H-pyrazol-1-yl)octahydro-1H-indene-3a-carboxylic acid]
- IC50: 6.17 nM

Compound: C[C@]1(C(=O)O)CC[C@H](n2ncc(C(=O)N(CC(=O)c3c(Cl)cccc3Cl)CC3(C(F)(F)F)CC3)c2C(F)(F)F)CC1 [Example 729, (1r,4r)-4-(4-((2-(2,6-dichlorophenyl)-2-oxoethyl)((1-(trifluoromethyl)cyclopropyl)methyl)carbamoyl)-5-(trifluoromethyl)-1H-pyrazol-1-yl)-1-methylcyclohexanecarboxylic acid]
- IC50: 2.4 nM

Compound: C[C@@H]1C[C@@](C)(C(=O)O)CC[C@@H]1n1ncc(C(=O)N(CC(=O)c2c(Cl)cncc2Cl)CC(C)(C)C)c1C(F)(F)F [Example 882, (1S,3R,4S)-4-(4-((2-(3,5-dichloro-4-pyridinyl)-2-oxoethyl)(2,2-dimethylpropyl)carbamoyl)-5-(trifluoromethyl)-1H-pyrazol-1-yl)-1,3-dimethylcyclohexanecarboxylic acid]
- IC50: 646 nM

Compound: COc1cc(Cl)c(C(=O)CN(C(=O)c2cnn([C@H]3CC[C@H](C(=O)O)CC3)c2C(F)(F)F)C2CCC(C)(C)CC2)c(Cl)c1 [Example 575, trans-4-(4-((2-(2,6-dichloro-4-methoxyphenyl)-2-oxoethyl)(4,4-dimethylcyclohexyl)carbamoyl)-5-(trifluoromethyl)-1H-pyrazol-1-yl)cyclohexanecarboxylic acid]
- IC50: 17 nM

Compound: Cc1cc(Cl)c(C(=O)CN(CC2(F)CCCC2)C(=O)c2cnn([C@H]3CC[C@@H](C(=O)O)CC3)c2C(F)(F)F)c(Cl)c1 [Example 631, cis-4-(4-((2-(2,6-dichloro-4-methylphenyl)-2-oxoethyl)((1-fluorocyclopentyl)methyl)carbamoyl)-5-(trifluoromethyl)-1H-pyrazol-1-yl)cyclohexanecarboxylic acid]
- IC50: 10 nM

Compound: CC1(C)CC[C@@H]1N(CC(=O)c1c(Cl)cncc1Cl)C(=O)c1cnn([C@H]2CC[C@@H](C(=O)O)CC2)c1C(F)(F)F [Example 635, cis-4-(4-((2-(3,5-dichloro-4-pyridinyl)-2-oxoethyl)((1S)-2,2-dimethylcyclobutyl)carbamoyl)-5-(trifluoromethyl)-1H-pyrazol-1-yl)cyclohexanecarboxylic acid]
- IC50: 324 nM

Compound: C[C@H]1C[C@@H](n2ncc(C(=O)N(CC(=O)c3c(Cl)cncc3Cl)CC(C)(C)C)c2C(F)(F)F)CC[C@@H]1C(=O)O (single isomer, unassigned) [Example 813]
- IC50: 6.03 nM

Compound: CC1(CN(CCc2c(Cl)cncc2Cl)C(=O)c2cnn([C@H]3CC[C@](C)(C(=O)O)CC3)c2C(F)(F)F)CC1 [Example 564, trans-4-(4-((2-(3,5-dichloro-4-pyridinyl)ethyl)((1-methylcyclopropyl)methyl)carbamoyl)-5-(trifluoromethyl)-1H-pyrazol-1-yl)-1-methylcyclohexanecarboxylic acid]
- IC50: 4.17 nM

Compound: CCOC(C)(C)CN(CC(=O)c1c(Cl)cncc1Cl)C(=O)c1cnn([C@H]2CC[C@](C)(C(=O)O)CC2)c1C(F)(F)F [Example 850, trans-4-(4-((2-(3,5-dichloro-4-pyridinyl)-2-oxoethyl)(2-ethoxy-2-methylpropyl)carbamoyl)-5-(trifluoromethyl)-1H-pyrazol-1-yl)-1-methylcyclohexanecarboxylic acid]
- IC50: 12.9 nM

Compound: CC(C)(CN(CC(=O)c1c(Cl)cccc1Cl)C(=O)c1cnn([C@H]2CC[C@](C)(C(=O)O)CC2)c1C(F)(F)F)C(F)(F)F [Example 893, trans-4-(4-((2-(2,6-dichlorophenyl)-2-oxoethyl)(3,3,3-trifluoro-2,2-dimethylpropyl)carbamoyl)-5-(trifluoromethyl)-1H-pyrazol-1-yl)-1-methylcyclohexanecarboxylic acid]
- IC50: 2.24 nM

Compound: CC1(C)C[C@H](CN(CC(=O)c2c(Cl)cccc2Cl)C(=O)c2cnn([C@H]3CC[C@](C)(C(=O)O)CC3)c2C(F)(F)F)O1 [Example 601, trans-4-(4-((2-(2,6-dichlorophenyl)-2-oxoethyl)(((2R)-4,4-dimethyl-2-oxetanyl)methyl)carbamoyl)-5-(trifluoromethyl)-1H-pyrazol-1-yl)-1-methylcyclohexanecarboxylic acid]
- IC50: 42.7 nM

Compound: O=C(CN(CC1CC2(CC2)C1)C(=O)c1cnn([C@H]2CC[C@H](C(=O)O)CC2)c1C(F)(F)F)c1c(Cl)cccc1Cl [Example 567, trans-4-(4-((2-(2,6-dichlorophenyl)-2-oxoethyl)(spiro[2.3]hex-5-ylmethyl)carbamoyl)-5-(trifluoromethyl)-1H-pyrazol-1-yl)cyclohexanecarboxylic acid]
- IC50: 2.4 nM

Compound: COc1cc(Cl)c(C(=O)CN(CC2(F)CCCC2)C(=O)c2cnn([C@H]3CC[C@H](CC(=O)O)CC3)c2C(F)(F)F)c(Cl)c1 [Example 888, (trans-4-(4-((2-(2,6-dichloro-4-methoxyphenyl)-2-oxoethyl)((1-fluorocyclopentyl)methyl)carbamoyl)-5-(trifluoromethyl)-1H-pyrazol-1-yl)cyclohexyl)acetic acid]
- IC50: 3.24 nM

Compound: Cc1cc(Cl)c(CCN(CC(C)(C)C)C(=O)c2cnn([C@H]3CC[C@](C)(C(=O)O)CC3)c2C(F)(F)F)c(Cl)c1 [Example 515, trans-4-(4-((2-(2,6-dichloro-4-methylphenyl)ethyl)(2,2-dimethylpropyl)carbamoyl)-5-(trifluoromethyl)-1H-pyrazol-1-yl)-1-methylcyclohexanecarboxylic acid]
- IC50: 4.68 nM

Compound: CC1(C)CC(N(CC(=O)c2c(Cl)cncc2Cl)C(=O)c2cnn([C@H]3CC[C@](C)(C(=O)O)CC3)c2C(F)(F)F)C1 [Example 587, trans-4-(4-((2-(3,5-dichloro-4-pyridinyl)-2-oxoethyl)(3,3-dimethylcyclobutyl)carbamoyl)-5-(trifluoromethyl)-1H-pyrazol-1-yl)-1-methylcyclohexanecarboxylic acid]
- IC50: 67.6 nM

Compound: CC1(CN(CC(=O)c2c(Cl)cncc2Cl)C(=O)c2cnn([C@H]3CC[C@](C)(C(=O)O)CC3)c2C(F)(F)F)CCCC1 [Example 711, trans-4-(4-((2-(3,5-dichloro-4-pyridinyl)-2-oxoethyl)((1-methylcyclopentyl)methyl)carbamoyl)-5-(trifluoromethyl)-1H-pyrazol-1-yl)-1-methylcyclohexanecarboxylic acid]
- IC50: 2.04 nM

Compound: C[C@@H]1C[C@@H](n2ncc(C(=O)N(CC(=O)c3c(Cl)cccc3Cl)CC3CC(C)(C)C3)c2C(F)(F)F)CC[C@@H]1C(=O)O [Example 663, (1S,2R,4S)-4-(4-((2-(2,6-dichlorophenyl)-2-oxoethyl)((3,3-dimethylcyclobutyl)methyl)carbamoyl)-5-(trifluoromethyl)-1H-pyrazol-1-yl)-2-methylcyclohexanecarboxylic acid]
- IC50: 1.95 nM

Compound: Cc1cc(Cl)c(C(=O)CN(CC2(C)COC2)C(=O)c2cnn([C@H]3CC[C@](C)(C(=O)O)CC3)c2C(F)(F)F)c(Cl)c1 [Example 676, trans-4-(4-((2-(2,6-dichloro-4-methylphenyl)-2-oxoethyl)((3-methyl-3-oxetanyl)methyl)carbamoyl)-5-(trifluoromethyl)-1H-pyrazol-1-yl)-1-methylcyclohexanecarboxylic acid]
- IC50: 51.3 nM

Compound: C[C@@H]1C[C@@H](n2ncc(C(=O)N(CC(=O)c3c(Cl)cccc3Cl)CC3CC(C)(C)C3)c2C(F)(F)F)CC[C@@H]1C(=O)O (stereo in doubt) [Example 572, (1S,2R,4S)-4-(4-((2-(2,6-dichlorophenyl)-2-oxoethyl)((3,3-dimethylcyclobutyl)methyl)carbamoyl) 5-(trifluoromethyl)-1H-pyrazol-1-yl)-2-methylcyclohexanecarboxylic acid]
- IC50: 4.68 nM

Compound: Cc1cc(Cl)c(CCN(CC2(C)CCCCC2)C(=O)c2cnn(C3CCC(C(=O)O)CC3)c2C(F)(F)F)c(Cl)c1 (stereo in doubt) [Example 511, trans-4-(4-((2-(2,6-dichloro-4-methylphenyl)ethyl)((1-methylcyclohexyl)methyl)carbamoyl)-5-(trifluoromethyl)-1H-pyrazol-1-yl)cyclohexanecarboxylic acid]
- IC50: 1.86 nM

Compound: CC1(C)CC[C@@H](CN(CCc2c(Cl)cncc2Cl)C(=O)c2cnn([C@H]3CC[C@](C)(C(=O)O)CC3)c2C(F)(F)F)O1 [Example 680, trans-4-(4-((2-(3,5-dichloro-4-pyridinyl)ethyl)(((2S)-5,5-dimethyltetrahydro-2-furanyl)methyl)carbamoyl)-5-(trifluoromethyl)-1H-pyrazol-1-yl)-1-methylcyclohexanecarboxylic acid]
- IC50: 47.9 nM
